Reference: patent publication US7166598B2, “Piperazine derivatives” (Astellas Pharma Inc., priority 1998, dated 2007)

Compound	melting point
Cl.Cl.O=C(c1cc(C(F)(F)F)cc(C(F)(F)F)c1)N1CCN(CCN2CCC(F)(F)CC2)C[C@H]1Cc1ccc(F)cc1	264 to 270.6 °C
COc1cc(C(=O)N2CCN(CCCc3cccnc3)C[C@H]2Cc2ccc(C(F)(F)F)cc2)cc(C(F)(F)F)c1.Cl.Cl	70 to 80 °C
CNc1cc(C[C@@H]2CN(CCN3CCO[C@H](COC)C3)CCN2C(=O)c2cc(C(F)(F)F)cc(C(F)(F)F)c2)ccc1C.Cl.Cl.Cl	156 to 163 °C
C[C@@H]1CN(CCN2CCN(C(=O)c3cc(C(F)(F)F)cc(S(C)(=O)=O)c3)[C@H](Cc3ccc(C(F)(F)F)cc3)C2)C[C@H](C)O1.Cl.Cl	188 to 195 °C
COc1cc(C(=O)N2CCN(CCN3CCC(F)(F)CC3)C[C@H]2Cc2c[nH]c3ccccc23)cc(C(F)(F)F)c1.Cl.Cl	130 to 140 °C
Cl.Cl.O=C(c1cc(C(F)(F)F)cc(C(F)(F)F)c1)N1CCN(Cc2cccnc2)C[C@H]1Cc1ccc(Cl)c(O)c1	187 to 192 °C
COC[C@@H]1CN(CCN2CCN(C(=O)c3cc(F)cc(C(F)(F)F)c3)[C@H](Cc3ccc(Cl)cc3)C2)CCO1.Cl.Cl	199 to 204 °C
Cl.Cn1cc(CN2CCN(C(=O)c3cc(C(F)(F)F)cc(C(F)(F)F)c3)[C@H](Cc3ccc(C(F)(F)F)cc3)C2)cn1	200 to 229 °C
Cc1ccc(C[C@@H]2CN(Cc3cnn(CCO)c3)CCN2C(=O)c2cc(C(F)(F)F)cc(C(F)(F)F)c2)cc1O.Cl	140 to 156 °C
C[C@@H]1CN(CCN2CCN(C(=O)c3cc(-n4cccc4)cc(C(F)(F)F)c3)[C@H](Cc3ccc(Cl)cc3)C2)C[C@H](C)O1.Cl.Cl	152.7 to 157.9 °C
COC[C@@H]1CN(CCN2CCN(C(=O)c3cc(C(F)(F)F)cc(C(F)(F)F)c3)C(Cc3ccc(C)c(O)c3)C2)[C@@H](C)CO1.Cl.Cl (stereo partly drawn) [4-(2), 1-[3,5-Bis(trifluoromethyl)benzoyl]-2-(3-hydroxy-4-methylbenzyl)-4-[2-[(2S,5S)-2-methoxymethyl-5-methylmorpholino]ethyl]piperazine dihydrochloride]	214 to 218 °C
CC1(C)COCCN1CC#CCN1CCN(C(=O)c2cc(C(F)(F)F)cc(C(F)(F)F)c2)[C@H](Cc2ccc(Cl)c(O)c2)C1.Cl.Cl	181 to 186 °C
COc1cc(C(=O)N2CCN(CCN3CCc4ncccc4C3)C[C@H]2Cc2ccc3ccccc3c2)cc(C(F)(F)F)c1.Cl.Cl.Cl	173 to 183 °C
C[C@@H]1CN(CCN2CCN(C(=O)c3cc(C(F)(F)F)cc(C(F)(F)F)c3)[C@H](Cc3ccc(F)c(F)c3)C2)C[C@H](C)O1.Cl.Cl	223 to 228 °C
COC[C@@H]1CN(C/C=C/CN2CCN(C(=O)c3cc(C(F)(F)F)cc(C(F)(F)F)c3)[C@H](Cc3ccc(C)c(O)c3)C2)CCO1.Cl.Cl	50 to 70 °C
COC[C@@H]1C[C@@H](OC)CN1CCN1CCN(C(=O)c2cc(C(F)(F)F)cc(C(F)(F)F)c2)[C@H](Cc2ccc(C(F)(F)F)cc2)C1.Cl.Cl	56.59 °C
COc1cc(C[C@@H]2CN(CCN3CCC(F)(F)CC3)CCN2C(=O)c2cc(C(F)(F)F)cc(C(F)(F)F)c2)ccc1F.Cl.Cl	240 to 243 °C
Cc1ccc(C[C@@H]2CN(Cc3ccc4ncccc4c3)CCN2C(=O)c2cc(C(F)(F)F)cc(C(F)(F)F)c2)cc1O.Cl.Cl	170 to 200 °C
Cl.Cl.O=C(c1cc(C(F)(F)F)cc(C(F)(F)F)c1)N1CCN(Cc2cccnc2)C[C@H]1Cc1ccc(Cl)cc1	220 to 228 °C (dec.)
COC[C@H]1CN(CCN2CCN(C(=O)c3cc(OC)cc(C(F)(F)F)c3)[C@H](Cc3c[nH]c4ccccc34)C2)CCO1.Cl.Cl	200 to 210 °C

Compound	melting point
COc1cc(C(=O)N2CCN(Cc3cnn(C)c3)C[C@H]2Cc2ccc3ccccc3c2)cc(C(F)(F)F)c1.Cl	226 to 228 °C
Cc1ccc(C[C@@H]2CN(CCN3CCc4sccc4C3)CCN2C(=O)c2cc(C(F)(F)F)cc(C(F)(F)F)c2)cc1O.Cl.Cl	245 to 265 °C
COc1cc(C(=O)N2CCN(CC#CCN3CCOCC3(C)C)C[C@H]2Cc2ccc(F)cc2)cc(C(F)(F)F)c1.Cl.Cl	137.5 to 140.7 °C
COC[C@@H]1CN(CCN2CCN(C(=O)c3cc(C(F)(F)F)cc(C(F)(F)F)c3)[C@H](Cc3ccc(C)c(O)c3)C2)CCO1.Cl.Cl [Example 5-(1)]	207 to 210 °C
COC[C@@H]1CN(CCN2CCN(C(=O)c3cc(C(F)(F)F)cc(C(F)(F)F)c3)[C@H](Cc3ccc(F)cc3)C2)CCO1.Cl.Cl	129 to 133 °C
COC[C@@H]1CN(C/C=C\CN2CCN(C(=O)c3cc(C(F)(F)F)cc(C(F)(F)F)c3)[C@H](Cc3ccc(C)c(O)c3)C2)CCO1.Cl.Cl	180 to 200 °C
Cl.Cl.O=C(c1cc(C(F)(F)F)cc(C(F)(F)F)c1)N1CCN(CCCc2cccnc2)C[C@H]1Cc1ccc(C(F)(F)F)cc1	64 to 74 °C
COc1cc(C(=O)N2CCN(CCN3CCc4ncccc4C3)C[C@H]2Cc2c[nH]c3ccccc23)cc(C(F)(F)F)c1.Cl.Cl.Cl	180 to 190 °C
CN(C)S(=O)(=O)c1cc(C(=O)N2CCN(CCN3CCc4ncccc4C3)C[C@H]2Cc2ccc(Cl)cc2)cc(C(F)(F)F)c1.Cl.Cl.Cl	209 to 226 °C
C[C@@H]1CN(CCN2CCN(C(=O)c3cc(C(F)(F)F)cc(C(F)(F)F)c3)[C@H](Cc3ccc(Cl)cc3)C2)C[C@H](C)O1.Cl.Cl	150 to 175 °C (dec.)
COCC1(COC)CN(CCN2CCN(C(=O)c3cc(C(F)(F)F)cc(C(F)(F)F)c3)[C@H](Cc3ccc(C(F)(F)F)cc3)C2)CCO1.Cl.Cl	123 to 149 °C
CSc1cc(C(=O)N2CCN(CCN3CCc4ncccc4C3)C[C@H]2Cc2ccc(Cl)cc2)cc(C(F)(F)F)c1.Cl.Cl.Cl	182 to 195 °C
C[C@@H]1CN(CCN2CCN(C(=O)c3cc(C(F)(F)F)cc(S(=O)(=O)N(C)C)c3)[C@H](Cc3ccc(Cl)cc3)C2)C[C@H](C)O1.Cl.Cl	209.6 to 213.7 °C
Cl.Cl.O=C(c1cc(C(F)(F)F)cc(C(F)(F)F)c1)N1CCN(CCN2CCC(F)(F)CC2)C[C@H]1Cc1ccc(Cl)c(O)c1	166 to 170 °C
C[C@@H]1CN(CCN2CCN(C(=O)c3cc(C(F)(F)F)cc(C(F)(F)F)c3)[C@H](Cc3ccc4ccccc4c3)C2)C[C@H](C)O1.Cl.Cl	168 to 195 °C
Cl.Cl.Cl.O=C(c1cc(C(F)(F)F)cc(C(F)(F)F)c1)N1CCN(CCN2CCc3ncccc3C2)C[C@H]1Cc1ccc2ccccc2c1	189 to 194 °C
Cc1ccc(C[C@@H]2CN(Cc3cnn(C)c3)CCN2C(=O)c2cc(C(F)(F)F)cc(C(F)(F)F)c2)cc1O.Cl	160 to 180 °C
COC[C@@H]1C[C@H](COC)CN(CCN2CCN(C(=O)c3cc(C(F)(F)F)cc(C(F)(F)F)c3)[C@H](Cc3ccc(C(F)(F)F)cc3)C2)C1.Cl.Cl	157 to 160 °C
COC[C@@H]1CN(CCN2CCN(C(=O)c3cc(C(F)(F)F)cc(C(F)(F)F)c3)[C@H](Cc3ccc(C)c(NCN4C(=O)CCC4O)c3)C2)CCO1.Cl.Cl.Cl (some centres unmarked)	163 to 176 °C
C[C@@H]1CN(CCN2CCN(C(=O)c3cc(C(F)(F)F)cc(C(F)(F)F)c3)[C@H](Cc3ccc(F)c(O)c3)C2)C[C@H](C)O1.Cl.Cl	170 to 195 °C

Compound	melting point
COc1cc(C(=O)N2CCN(CCN3CCc4ncccc4C3)C[C@H]2Cc2ccc(C(F)(F)F)c(OC)c2)cc(C(F)(F)F)c1.Cl.Cl.Cl	190 to 200 °C
COC[C@@H]1CN(CCN2CCN(C(=O)c3cc(C(F)(F)F)cc(C(F)(F)F)c3)[C@H](Cc3ccc(C(F)(F)F)cc3)C2)CCO1.Cl.Cl	146 to 159 °C
COc1cc(C(=O)N2CCN(CCN3CCC(F)(F)CC3)C[C@H]2Cc2ccc(F)cc2)cc(C(F)(F)F)c1.Cl.Cl	258.4 to 261.4 °C
Cl.Cn1cc(CN2CCN(C(=O)c3cc(C(F)(F)F)cc(C(F)(F)F)c3)[C@H](Cc3ccc4ccccc4c3)C2)cn1	> 250 °C
Cl.Cl.Cl.O=C(c1cc([N+](=O)[O-])cc(C(F)(F)F)c1)N1CCN(CCN2CCc3ncccc3C2)C[C@H]1Cc1ccc(Cl)cc1	221 to 228 °C
COC[C@@H]1CN(CCN2CCN(C(=O)c3cc(C(F)(F)F)cc(C(F)(F)F)c3)[C@H](Cc3ccc(F)c(C)c3)C2)CCO1.Cl.Cl	151 to 156 °C
Cl.Cl.O=C(c1cc(C(F)(F)F)cc(C(F)(F)F)c1)N1CCN(CCCc2cccnc2)C[C@H]1Cc1ccc(F)cc1	110.2 to 117.5 °C
Cc1ccc(C[C@@H]2CN(Cc3nc(N(C)C)no3)CCN2C(=O)c2cc(C(F)(F)F)cc(C(F)(F)F)c2)cc1O.Cl.Cl	140 to 150 °C
COc1cc(C[C@@H]2CN(CCN3C[C@@H](C)O[C@@H](C)C3)CCN2C(=O)c2cc(-c3ccncc3)cc(C(F)(F)F)c2)ccc1F.Cl.Cl.Cl	137.6 to 142.5 °C
COC[C@@H]1CN(CC#CCN2CCN(C(=O)c3cc(C(F)(F)F)cc(C(F)(F)F)c3)C(Cc3ccc(C)c(O)c3)C2)[C@@H](C)CO1.Cl.Cl (some centres unmarked)	110 to 135 °C
COC[C@@H]1CN(CCN2CCN(C(=O)c3cc(C(F)(F)F)cc(C(F)(F)F)c3)[C@H](Cc3ccc(C)c(O)c3)C2)CCO1.Cl.Cl [Example 13]	206 to 224.5 °C
Cl.Cl.O=C(c1cc(C(F)(F)F)cc(C(F)(F)F)c1)N1CCN(Cc2cccnc2)C[C@H]1Cc1ccc2ccccc2c1	198 to 208 °C
COC[C@@H]1CN(CCN2CCN(C(=O)c3cc(C(F)(F)F)cc(C(F)(F)F)c3)[C@H](Cc3ccc(Cl)c(O)c3)C2)CCO1.Cl.Cl	160 to 169 °C
Cl.Cl.O=C(c1cc(C(F)(F)F)cc(C(F)(F)F)c1)N1CCN(CCCc2cccnc2)C[C@H]1Cc1ccc(F)c(F)c1	215 to 220 °C
COc1cc(C[C@@H]2CN(CCN3CCC[C@H]3CO)CCN2C(=O)c2cc(C(F)(F)F)cc(C(F)(F)F)c2)ccc1F.Cl.Cl	198 to 201 °C
Cl.Cl.O=C(c1cc(C(F)(F)F)cc(C(F)(F)F)c1)N1CCN(CCN2CCC(F)(F)CC2)C[C@H]1Cc1ccc(Cl)cc1	250 to 255 °C
Cc1ccc(C[C@@H]2CN(CCN3CCc4ncccc4C3)CCN2C(=O)c2cc(C(F)(F)F)cc(C(F)(F)F)c2)cc1O.Cl.Cl.Cl	255 to 270 °C
COC[C@H]1CN(CCN2CCN(C(=O)c3cc(C(F)(F)F)cc(C(F)(F)F)c3)[C@H](Cc3ccc(Cl)c(O)c3)C2)CCO1.Cl.Cl	204 to 214 °C
CC1(C)COCCN1CC#CCN1CCN(C(=O)c2cc(C(F)(F)F)cc(C(F)(F)F)c2)[C@H](Cc2ccc(Cl)cc2)C1.Cl.Cl	120 to 150 °C
